System: patients with hypercholesterolemia at high CV risk not adequately controlled with rosuvastatin (10 mg or 20 mg)
Assay: Example 3: randomized, double-blind trial, lipid efficacy of mAb316P add-on to rosuvastatin vs EZE add-on or rosuvastatin dose doubling
Format: in vivo, human
Settings: for Proportion of Patients Reaching LDL-C goal (%): week 24, LDL-C <70 mg/dL very high risk or <100 mg/dL high risk
Method: The present study was a randomized, double-blind, active-comparator, parallel-group study in patients at high CV risk with non-FH or heFH who are not adequately controlled with rosuvastatin (10 mg or 20 mg) with or without other lipid-modifying therapy (LMT) (excluding EZE). The study design is illustrated in FIG. 2. Patients who entered the study were taking either rosuvastatin 10 mg or rosuvastatin 20 mg. The former patients were randomized to 1 of 3 treatment arms (arms 1 to 3); the latter patients were randomized to 1 of 3 treatment arms (arms 4 to 6). The treatment arms are as follows:
(B) a double-blind treatment period of 24 weeks. […] The patient/caregiver administered subsequent injections outside of the clinic according to the dosing schedule. […] The last dose of daily oral study drugs was administered at week 24.
The first injection of study drug was administered at the clinical site, as soon as possible after the patient was randomized into the study. The patient was monitored at the clinical site for at least 30 minutes following the first injection. The patient/caregiver administered subsequent injections outside of the clinic, according to the dosing schedule.
The primary efficacy endpoint was the percent change in calculated LDL-C from baseline to week 24, which is defined as: 100× (calculated LDL-C value at week 24−calculated LDL-C value at baseline)/calculated LDL-C value at baseline. The baseline calculated LDL-C value was the last LDL-C level obtained before the first double-blind study drug injection. The calculated LDL-C at week 24 was the LDL-C level obtained within the week 24 analysis window and during the main efficacy period. The main efficacy period is defined as the time from the first double-blind study drug injection up to 21 days after the last double-blind study drug injection or up to the upper limit of the week 24 analysis window, whichever comes first.
Total-C, HDL-C, TG, ApoB, ApoA-1, and Lp(a) were directly measured by a central laboratory. LDL-C was calculated using the Friedewald formula. […] Non-HDL-C was calculated by subtracting HDL-C from the total-C. Ratio ApoB/ApoA-1 was calculated.
For clarification, the ITT analysis is defined for patients in the ITT population and includes all endpoint assessments in an analysis window, regardless of study treatment dosing status (i.e. includes post-treatment assessments). The on-treatment analysis is defined for patients in the mITT population and includes all endpoint assessments from the first double-blind study drug (capsule or injection, whichever comes first) up to 21 days after the last double-blind study drug injection or 3 days after the last capsule intake, whichever comes first (i.e. includes assessments in the efficacy treatment period).

[1] = ITT Population, Comparison 1: mAb316P + rosuvastatin 10 mg arm vs. rosuvastatin 20 mg arm
[2] = ITT Population, Comparison 2: mAb316P + rosuvastatin 10 mg arm vs. EZE + rosuvastatin 10 mg arm
[3] = ITT Population, Comparison 3: mAb316P + rosuvastatin 20 mg arm vs. rosuvastatin 40 mg arm
[4] = ITT Population, Comparison 4: mAb316P + rosuvastatin 20 mg arm vs. EZE + rosuvastatin 20 mg arm
[5] = mITT Population, Comparison 1: mAb316P + rosuvastatin 10 mg arm vs. rosuvastatin 20 mg arm
[6] = mITT Population, Comparison 2: mAb316P + rosuvastatin 10 mg arm vs. EZE + rosuvastatin 10 mg arm
[7] = mITT Population, Comparison 3: mAb316P + rosuvastatin 20 mg arm vs. rosuvastatin 40 mg arm
[8] = mITT Population, Comparison 4: mAb316P + rosuvastatin 20 mg arm vs. EZE + rosuvastatin 20 mg arm

## mAb316P: human anti-PCSK9 antibody; heavy chain SEQ ID NO:5, light chain SEQ ID NO:9
Baseline Rosuvastatin 10 mg
  Proportion of Patients Reaching LDL-C goal (%): 84.9%
Baseline Rosuvastatin 20 mg
  Proportion of Patients Reaching LDL-C goal (%): 66.7%
[1]
  LS Mean Difference, percent change from baseline of Apo B to week 24: −29.2%
  LS Mean Difference, percent change from baseline of Apo-B to week 12: −28.1%
  LS Mean Difference, percent change from baseline of HDL-C at week 24: 7.4%
  LS Mean Difference, percent change from baseline of Lp(a) to week 24: −23.9%
  LS Mean Difference, percent change from baseline of Non-HDL-C to week 12: −29.5%
  LS Mean Difference, percent change from baseline of Total-C to week 12: −20.1%
  LS Mean Difference, percent change from baseline of Total-C to week 24: −20.6%
  LS Mean Difference, percent change from baseline of calculated LDL-C to week 12: −32.5%
  LS Mean Difference, percent change from baseline of calculated LDL-C to week 24: −34.2%
  LS Mean Difference, percent change from baseline of non-HDL-C to week 24: −31.4%
  Odds Ratio, proportion of patients reaching calculated LDL-C < 70 mg/dL (1.81 mmol/L) at Week 24: 18.6
  Odds Ratio, proportion of very high CV risk patients reaching calculated LDL-C < 70 mg/dL or high CV risk patients reaching calculated LDL-C < 100 mg/dL at Week 24: 10.2
[2]
  LS Mean Difference, percent change from baseline of Apo B to week 24: −26.8%
  LS Mean Difference, percent change from baseline of Apo-B to week 12: −24.0%
  LS Mean Difference, percent change from baseline of HDL-C at week 24: 5.1%
  LS Mean Difference, percent change from baseline of Lp(a) to week 24: −23.6%
  LS Mean Difference, percent change from baseline of Non-HDL-C to week 12: −24.9%
  LS Mean Difference, percent change from baseline of Total-C to week 12: −17.2%
  LS Mean Difference, percent change from baseline of Total-C to week 24: −20.3%
  LS Mean Difference, percent change from baseline of calculated LDL-C to week 12: −32.2%
  LS Mean Difference, percent change from baseline of calculated LDL-C to week 24: −36.1%
  LS Mean Difference, percent change from baseline of non-HDL-C to week 24: −29.3%
  Odds Ratio, proportion of patients reaching calculated LDL-C < 70 mg/dL (1.81 mmol/L) at Week 24: 11.6
  Odds Ratio, proportion of very high CV risk patients reaching calculated LDL-C < 70 mg/dL or high CV risk patients reaching calculated LDL-C < 100 mg/dL at Week 24: 7.8
[3]
  LS Mean Difference, percent change from baseline of Apo B to week 24: −18.5%
  LS Mean Difference, percent change from baseline of Apo-B to week 12: −15.3%
  LS Mean Difference, percent change from baseline of HDL-C at week 24: 5.7%
  LS Mean Difference, percent change from baseline of Lp(a) to week 24: −17.5%
  LS Mean Difference, percent change from baseline of Non-HDL-C to week 12: −11.8%
  LS Mean Difference, percent change from baseline of Total-C to week 12: −5.5%
  LS Mean Difference, percent change from baseline of Total-C to week 24: −12.1%
  LS Mean Difference, percent change from baseline of calculated LDL-C to week 12: −10.2%
  LS Mean Difference, percent change from baseline of calculated LDL-C to week 24: −20.3%
  LS Mean Difference, percent change from baseline of non-HDL-C to week 24: −20.1%
  Odds Ratio, proportion of patients reaching calculated LDL-C < 70 mg/dL (1.81 mmol/L) at Week 24: 6.1
  Odds Ratio, proportion of very high CV risk patients reaching calculated LDL-C < 70 mg/dL or high CV risk patients reaching calculated LDL-C < 100 mg/dL at Week 24: 4.7
[4]
  LS Mean Difference, percent change from baseline of Apo B to week 24: −17.1%
  LS Mean Difference, percent change from baseline of Apo-B to week 12: −14.7%
  LS Mean Difference, percent change from baseline of HDL-C at week 24: 9.0%
  LS Mean Difference, percent change from baseline of Lp(a) to week 24: −16.9%
  LS Mean Difference, percent change from baseline of Non-HDL-C to week 12: −11.0%
  LS Mean Difference, percent change from baseline of Total-C to week 12: −5.5%
  LS Mean Difference, percent change from baseline of Total-C to week 24: −8.2%
  LS Mean Difference, percent change from baseline of calculated LDL-C to week 12: −12.9%
  LS Mean Difference, percent change from baseline of calculated LDL-C to week 24: −25.3%
  LS Mean Difference, percent change from baseline of non-HDL-C to week 24: −18.4%
  Odds Ratio, proportion of patients reaching calculated LDL-C < 70 mg/dL (1.81 mmol/L) at Week 24: 2.5
  Odds Ratio, proportion of very high CV risk patients reaching calculated LDL-C < 70 mg/dL or high CV risk patients reaching calculated LDL-C < 100 mg/dL at Week 24: 2.3
Baseline rosuvastatin 10 mg regimen
  proportion of patients who reached LDL-C level of <70 mg/dL (1.81 mmol/L) at Week 24: 77.8%
Baseline rosuvastatin 20 mg regimen
  proportion of patients who reached LDL-C level of <70 mg/dL (1.81 mmol/L) at Week 24: 60.1%
[5]
  LS Mean Difference, percent change from baseline of Apo B to week 24: −30.7%
  LS Mean Difference, percent change from baseline of calculated LDL-C to week 12: −35.3%
  LS Mean Difference, percent change from baseline of calculated LDL-C to week 24: −35.2%
  LS Mean Difference, percent change from baseline of non-HDL-C to week 24: −32.8%
  Odds Ratio, proportion of patients reaching calculated LDL-C < 70 mg/dL (1.81 mmol/L) at Week 24: 20.3
  Odds Ratio, proportion of very high CV risk patients reaching calculated LDL-C < 70 mg/dL or high CV risk patients reaching calculated LDL-C < 100 mg/dL at Week 24: 12.4
[6]
  LS Mean Difference, percent change from baseline of Apo B to week 24: −28.3%
  LS Mean Difference, percent change from baseline of calculated LDL-C to week 12: −32.3%
  LS Mean Difference, percent change from baseline of calculated LDL-C to week 24: −33.2%
  LS Mean Difference, percent change from baseline of non-HDL-C to week 24: −28.2%
  Odds Ratio, proportion of patients reaching calculated LDL-C < 70 mg/dL (1.81 mmol/L) at Week 24: 12.7
  Odds Ratio, proportion of very high CV risk patients reaching calculated LDL-C < 70 mg/dL or high CV risk patients reaching calculated LDL-C < 100 mg/dL at Week 24: 8.9
[7]
  LS Mean Difference, percent change from baseline of Apo B to week 24: −17.7%
  LS Mean Difference, percent change from baseline of calculated LDL-C to week 12: −12.3%
  LS Mean Difference, percent change from baseline of calculated LDL-C to week 24: −24.5%
  LS Mean Difference, percent change from baseline of non-HDL-C to week 24: −20.7%
  Odds Ratio, proportion of patients reaching calculated LDL-C < 70 mg/dL (1.81 mmol/L) at Week 24: 9.0
  Odds Ratio, proportion of very high CV risk patients reaching calculated LDL-C < 70 mg/dL or high CV risk patients reaching calculated LDL-C < 100 mg/dL at Week 24: 5.9
[8]
  LS Mean Difference, percent change from baseline of Apo B to week 24: −17.8%
  LS Mean Difference, percent change from baseline of calculated LDL-C to week 12: −13.3%
  LS Mean Difference, percent change from baseline of calculated LDL-C to week 24: −24.9%
  LS Mean Difference, percent change from baseline of non-HDL-C to week 24: −17.4%
  Odds Ratio, proportion of patients reaching calculated LDL-C < 70 mg/dL (1.81 mmol/L) at Week 24: 3.4
  Odds Ratio, proportion of very high CV risk patients reaching calculated LDL-C < 70 mg/dL or high CV risk patients reaching calculated LDL-C < 100 mg/dL at Week 24: 2.7

Reference: patent US20150231236A1, “METHODS FOR TREATING PATIENTS WITH HYPERCHOLESTEROLEMIA THAT IS NOT ADEQUATELY CONTROLLED BY MODERATE-DOSE STATIN THERAPY” (Regeneron Pharmaceuticals, Inc., priority 2014, published 2015)
